Results: US9023813B2 (Nutek Pharma Ltd., priority 2012, dated 2015)
Several values for one entry are separate records, joined by “and”; a condition that tells them apart may be missing. Identical values can stand only once. Entries after “also recorded” stand apart in the source; their conditions may differ.

Assays:
[1] = Pharmacokinetics: plasma concentrations of prodrug and propofol after intravenous infusion (LC/MS/MS); conditions: for Mean Concentration of Propofol in Rat Plasma After Intravenous Administration: analyte = propofol released from the administered compound; for Pro-drug behaviour (release of propofol in vivo): rats, releasing the propofol in a matter of minutes after infusion; for AUCinf / MRTinf: extrapolated to infinity; for AUClast: to last detected concentration; for CLp: total body clearance, dose/AUCinf; for Vdss: volume of distribution
Description: (§1) Blood samples were to be taken pre-dose, during dose and post dose at designated intervals, with the blood quickly processed and stored at −70° C. until analysis.
(§2) Formulations were prepared on the morning of the dosing day and each was passed through a 0.22 μm filter prior to being administered to animals. A standard dose of 0.168 mmol/Kg per analog was administered to each of the rats. […] Analog stability in the formulations was verified by preparing each formulation and harvesting 200 μL aliquots at 0, 1, 2 and 8 hr while standing at room temperature. After harvesting, each sample was immediately frozen in dry ice until analysis; concentrations of test compounds in the samples were examined by HPLC-UV.
(§3) The animals were surgically prepared with indwelling cannula, double cannulation in carotid artery and jugular vein for i.v. infusion. The anesthetic pentobarbital was used during the surgery, and the animals were allowed to recover 3-5 days after surgery before the formulation was dosed. The dose formulation was administered intravenously via the jugular vein cannula. The 16.8 μmol/mL formulation was administered i.v. at a rate of 1 mL/Kg/min for 10 min.
Approximately 0.20 mL blood was collected at each designated time point from carotid artery via a catheter. A total of 12 plasma samples were taken from each animal: 1 pre-dose; 2 during the dose (5 into the 10 min infusion and one just prior termination of the 10 min infusion) and 9 post-infusion at 2, 5, 15, 30 min and 1, 2, 3, 4, and 6 hr post-dose. All blood samples were transferred into plastic microcentrifuge tubes containing 5 μL of K2-EDTA (0.5M) as anti-coagulant and placed on ice until processed for plasma. Blood samples were processed for plasma by centrifugation at approximately 5° C. Plasma samples were then stored in 1.5 mL tubes, quick frozen over dry ice and kept at −70±10° C. until LC/MSMS analysis.
For each, a minimum of 6 standard point curve runs in duplicates, and minimum of 5 standards were back calculated to within ±20% of their nominal concentrations. The LLOQ of each test article in plasma was established and 6 QC samples were included in assay runs of samples to ensure assay performance.
Data Analysis. Plasma concentration versus time data was analyzed by non-compartmental approaches using the WinNonlin software program (version 5.2, Pharsight, Mountain View, Calif.) and the pharmacokinetic parameters T½, CL, Vss, AUC(0-t), AUC(0-inf), MRT, and graphs of plasma concentration versus time calculated for each.

[2] = Solubility determination in D2O by 1H NMR with DSS internal standard
Description: Thus the soapy-like solutions obtained were diluted until opalescent and diluted further until the opalescence visually disappeared.

[3] = tested on: male Sprague Dawley rats; experiment: Clinical observations of rats during administration of propofol analogs in the pharmacokinetics study; conditions: for Rats recovered at: time post-10 min i.v. infusion, 0.168 mmol/Kg
Description: as §1, §2, §3

[4] = analyte = administered compound, Time (h) 0
[5] = analyte = administered compound, Time (h) 0.083
[6] = analyte = administered compound, Time (h) 0.167
[7] = analyte = administered compound, Time (h) 0.2
[8] = analyte = administered compound, Time (h) 0.25
[9] = analyte = administered compound, Time (h) 0.417
[10] = analyte = administered compound, Time (h) 0.667
[11] = analyte = administered compound, Time (h) 1.166
[12] = analyte = administered compound, Time (h) 2.166
[13] = analyte = administered compound, Time (h) 3.166
[14] = analyte = administered compound, Time (h) 4.166
[15] = analyte = administered compound, Time (h) 6.166
[16] = analyte = administered compound
[17] = individual rats, post-10 min infusion, vehicle 10% Tween80
[18] = analyte = administered compound, rat plasma, IV infusion

Row | Compound | Mean concentration of prodrug and propofol in rat plasma after intravenous infusion administration [1, 4] | Mean concentration of prodrug and propofol in rat plasma after intravenous infusion administration [1, 5] | Mean concentration of prodrug and propofol in rat plasma after intravenous infusion administration [1, 6] | Mean concentration of prodrug and propofol in rat plasma after intravenous infusion administration [1, 7] | Mean concentration of prodrug and propofol in rat plasma after intravenous infusion administration [1, 8] | Mean concentration of prodrug and propofol in rat plasma after intravenous infusion administration [1, 9] | Mean concentration of prodrug and propofol in rat plasma after intravenous infusion administration [1, 10] | Mean concentration of prodrug and propofol in rat plasma after intravenous infusion administration [1, 11] | Mean concentration of prodrug and propofol in rat plasma after intravenous infusion administration [1, 12] | Mean concentration of prodrug and propofol in rat plasma after intravenous infusion administration [1, 13] | Mean concentration of prodrug and propofol in rat plasma after intravenous infusion administration [1, 14] | Mean concentration of prodrug and propofol in rat plasma after intravenous infusion administration [1, 15] | Mean Concentration of Propofol in Rat Plasma After Intravenous Administration ([1]; Time (h) 0) | Pro-drug behaviour (release of propofol in vivo) [1] | Relative solubility [2] | Rats recovered at [3] | AUCinf [1, 16] | MRTinf [1, 16] | AUClast [1, 16] | Mean Concentration of Propofol in Rat Plasma After Intravenous Administration ([1]; Time (h) 4.166) | further results
1 | CC(C)c1cccc(C(C)C)c1OC(=O)OCCO[C@@H]1O[C@H](CO)[C@@H](O)[C@H](O)[C@H]1O [Compound 9] | BQL | BQL | BQL | BQL | BQL | BQL | BQL | BQL | BQL | BQL | BQL | BQL | BQL | very efficient pro-drugs | 8.6 | recovered at about 30 min |  |  |  |  | 
2 | CC(C)c1cccc(C(C)C)c1OC(=O)OCCCO[C@@H]1O[C@H](CO)[C@@H](O)[C@H](O)[C@H]1O [Compound 12] | BQL | 4.11 nM | 6.78 nM | BQL | BQL | BQL | BQL | BQL | BQL | BQL | BQL | BQL | BQL | very efficient pro-drugs | 5.0 | recovered at about 30 min | 0.00122 µM·h | 6 min | 0.000773 µM·h | BQL | Mean Concentration of Propofol in Rat Plasma After Intravenous Administration ([1]; Time (h) 6.166): BQL
3 | CC(C)c1cccc(C(C)C)c1OC(=O)NCCO[C@@H]1O[C@H](CO)[C@@H](O)[C@H](O)[C@H]1O [Compound 17] | BQL | 178796 nM | 312678 nM | 152206 nM | 119535 nM | 35206 nM | 19837 nM | 8012 nM | 2083 nM | 390.7 nM | 82.5 nM | 10.6 nM | BQL |  |  |  | 71.764 µM·h | 16.6 min | 61.644 µM·h | BQL | CLp [1, 16]: 39.1 mL/min/kg; Vdss [1, 16]: 0.657 L/kg; Mean Concentration of Propofol in Rat Plasma After Intravenous Administration ([1]; Time (h) 2.166): BQL; Mean Concentration of Propofol in Rat Plasma After Intravenous Administration ([1]; Time (h) 3.166): BQL; Mean Concentration of Propofol in Rat Plasma After Intravenous Administration ([1]; Time (h) 6.166): BQL; Water solubility (qualitative) ([2]; reason for cosolvent): poor; Rat died at infusion of ([3]; Additional Rat 4, during infusion, vehicle 10% Tween80): infusion of 8 min.; Rat died at ([3]; Rat 3, post-10 min infusion, vehicle 10% Tween80): 1.5 h; Overall outcome in rats ([3]; in its vehicle (10% tween80 cosolvent)): poor results; Rat died at [3, 17]: died at 15 min. and 40 min; Rat recovered (from breathlessness) at [3, 17]: recovered at 10 min.; died at; Cause of death ([3]; individual rats, vehicle 10% Tween80): blood hemolysis; also recorded: hematuria
4 | CC(C)c1cccc(C(C)C)c1OC(=O)OCCO[C@@H]1O[C@H](CO)[C@@H](OC2O[C@H](CO)[C@@H](O)[C@H](O)[C@H]2O)[C@H](O)[C@H]1O (stereo partly shown) [Compound 24] | BQL | 3200 nM | 7740 nM | 1029 nM | 751 nM | 36 nM | 11.2 nM | 3.01 nM | BQL | 4.2 nM | BQL | BQL | BQL | very efficient pro-drugs | >20 | recovered at about 30 min | 0.791 µM·h | 12.4 min | 0.786 µM·h |  | Cmax [1, 18]: 8100 nM; Tmax [1, 18]: 8.4 min; t1/2 [1, 18]: 53.2 min; CLp [1, 16]: 5804 mL/min/kg; Vdss [1, 16]: 120 L/kg; solubility ([2]; D2O, water, thermodynamic from solid): > 20 mM
